# Source: patent US20110206608A1, “Pharmaceutical Composition Of A Radioiodinated Benzamide Derivative And Methods Of Making Same” (priority 2008, published 2011)
# Entries after “also recorded” stand apart in the source; their conditions may differ. Like-named read-outs stand apart in the source and are kept apart here.
# Assays:
# B16F10 tumor = assay: Organ distribution and tumor accumulation in B16F10 tumor bearing mice; format: in vivo; conditions: for biodistribution (distribution properties): B16F10 tumor bearing mice, 1 hour and 24 hour after intravenous administration, FIG. 4
# Method: FIG. 3 illustrates the biodistribution of ^131I-Cmpd B and ^131I-Cmpd BD in B16F10 bearing mice.
# FIG. 4 illustrates the biodistribution of ^131I-Cmpd A, ^131I-Cmpd B, ^131I-Cmpd C, and ^131I-Cmpd D in B16F10 tumor bearing mice.
# The organ distribution and tumor accumulation experiments were performed in B16F10 tumor bearing mice. At times indicated (1 hour and 24 hour) after intravenous administration of the substances, the animals were sacrificed, organs and tumors were removed, optionally dabbed dry, weighed, and measured for radioactive content in a calibrator with the corresponding isotope standard. The results are depicted as % of the injected dose/gm of tissue. FIG. 4 illustrates the biodistribution of ^131I-Cmpd A, ^131I-Cmpd B, ^131I-Cmpd C, and ^131I-Cmpd D in B16F10 tumor bearing mice.
# [1] = Stability in ^131I-labeling, Tl(TFA)3/TFA iodination (Example 6-A); format: physicochemical; conditions: for chemical stability during the radioiodination: Tl(TFA)3/TFA iodination; for Identified impurity (%) / RCP (%): after ^131I-labeling with 2.5 mCi Na^131I
# Excerpt: Purpose: ^131I-labeling yield and stability were compared side-by-side for (Compound C, Compound D and Compound A) together with Compound B (with or without addition of Dioxolane).
# Results: The T1(TFA)3/TFA iodination method could be used for ^131I-Compound C, ^131I-Compound D and Compound A. Different from Compound B, there was almost no degraded impurities occurred during the labeling (^131I-Compound C, ^131I-Compound D or Compound A) at a radioactivity dose level of 2.5 mCi.
# SK-MEL-3 tumor = assay: Effect on SK-MEL-3 tumor growth in mice; format: in vivo; conditions: 68 mCi/m^2
# Excerpt: FIG. 6 illustrates the effect of ^131I-Cmpd A (68 mCi/m^2) on SK-MEL-3 tumor growth at various dose levels.
# FIG. 7 illustrates the effect of ^131I-Cmpd A (68 mCi/m^2) on SK-MEL-3 tumor growth in mice at various dose levels. […] (Please note that animals were euthanized if tumor volume was>1500 mm^3).
# Effects of ^131I-Cmpd A (68 mCi/m^2) on SK-MEL-3 tumor growth were investigated in mice. Saline and dacarbazine were used as references for the study. In this experiment, different batches of mice were administered a dose of 68 mCi/m^2 of ^131I-Cmpd A once a day, twice a day, and thrice a day. The treatment lasted for 125 days. The mice were euthanized if tumor volume was greater than 1500 mm^3. The treated mice were closely monitored and sacrificed if any signs of approaching death were shown. Tumor change (length and width of tumor) was monitored every few days.
# [2] = Tumor uptake and retention of ^123I-Compound B in B16 melanoma bearing mice; format: in vivo; conditions: mouse
# Excerpt: Tumor uptake and retention of ^123I-Compound B in B16 melanoma bearing mice (% ID/g) was as shown in Table B. Those studies were done using the method disclosed in Eisenhut et al., J. Med. Chem. 2000, 43(21), 3913-22.
# melanin = melanin targeting / binding capacity in vitro and in vivo
# [3] = Stability post labelling in radiolysis protecting buffer, 3 days storage at RT (Example 6-B); format: physicochemical; conditions: for Free ^131I (%) / Identified impurity (%) / RCP (%): RT, radiolysis protecting buffer, ~11 mCi/mL
# [4] = Solubility at 3 mg/mL, dissolved in acetic acid, then PEG400/ethanol, then matrix, visual inspection (Example 7-B); format: physicochemical; conditions: 3% acetic acid, 30% PEG400, 2% ethanol, 6% ascorbic acid, 3% sodium gentisate, pH=3.6, RT
# Method: The compounds were dissolved in acetic acid first, and then diluted with PEG400/ethanol; the solution was finally diluted in matrix into a final concentration of 3 mg/mL. The components of the matrix included 3% sodium gentisate (w/v) and 6% ascorbic acid (w/v) (pH=3.6). The prepared sample solution was kept at RT and examined by visual inspection.
# [5] = Solubility over one week storage at RT, visual inspection and HPLC (Example 7-C); format: physicochemical; conditions: for HPLC measured conc. at 7 days: 3 mg/mL prepared, with 3% acetic acid; for aqueous solubility: comparison among the tested compounds
# Method: Compound C and Compound D were dissolved in acetic acid first, and then with PEG400/ethanol; the solution was finally diluted in matrix into a final concentration of 3 mg/mL. The matrix included 3% sodium gentisate (w/v) and 6% ascorbic acid (w/v) (pH=3.6). The prepared sample solution was kept at RT and examined by visual inspection. The concentration of the tested compounds in the solution or in the supernatant was analyzed by HPLC.
# B16 melanoma = B16 melanoma bearing C57BL/J1 mouse, cited from earlier work
# [6] = protected with 10 μL of Dioxolane
smiles,measurement,setting,value
"CCN(CC)CCNC(=O)c1cc([131I])c(NC(=O)c2ccc(F)cc2)cc1OC [Compound A, N-(2-(diethylamino)ethyl)-4-(4-fluoro-benzoylamino)-5-iodo-2-methoxybenzamide]",biodistribution (distribution properties),B16F10 tumor,desirable distribution properties
same,tumor uptake and retention,B16F10 tumor; tumor bearing animal models,significant high tumor uptake and prolonged retention
same,chemical stability during the radioiodination,[1],stable
same,tumor growth (tumor change),"SK-MEL-3 tumor; SK-MEL-3 tumor in mice, FIG. 6",reducing the tumor growth
same,survival of the mice,"SK-MEL-3 tumor; SK-MEL-3 tumor in mice, FIG. 7",increasing survival of the mice
same,response to treatment,SK-MEL-3 tumor; human melanoma mouse xenograft model,complete response (CR) has been observed
"CCN(CC)CCNC(=O)c1cc(I)c(NC(=O)c2ccc3c(c2)OCO3)cc1OC [Compound B, benzo[1,3]dioxole-5-carboxylic acid [4-(2-diethylamino-ethylcarbamoyl)-2-iodo-5-methoxyphenyl]amide]",tissue uptake at 1 h,[2]; 1 h,14.8 %ID/g
same,tissue uptake at 5 h,[2]; 5 h,22.7 %ID/g
same,tissue uptake at 48 h,[2]; 48 h,16.6 %ID/g
same,melanin targeting capacity,melanin,found to have melanin targeting capacity both in vitro and in vivo
same,Free ^131I (%),[3]; 0 day,0.1%
same,Identified impurity (%),[3]; 0 day,10.3%
same,RCP (%),[3]; 0 day,89.5%
same,Free ^131I (%),[3]; 3 day,2.4%
same,Identified impurity (%),[3]; 3 day,8.8%
same,RCP (%),[3]; 3 day,88.6%
same,stability during the 3 days storage at RT post labeling,"[3]; diluted in radiolysis protecting solution, Compound B vs Compound A",no significant difference in stability
same,biodistribution (distribution properties),B16F10 tumor,desirable distribution properties
same,chemical stability during the radioiodination,[1],poor chemical stability
same,Identified impurity (%),[1]; Tl(TFA)3/TFA,5.5%
same,RCP (%),[1]; Tl(TFA)3/TFA,90.3%
same,Identified impurity (%),[1]; [6],2.3%
same,RCP (%),[1]; [6],94.0%
"CCN(CC)CCNC(=O)c1cc(I)c(NC(=O)c2ccc(Cl)cc2)cc1OC [Compound C, 4-(4-chlorobenzoylamino)-N-(2-(diethylamino)ethyl)-5-iodo-2-methoxybenzamide]",melanin targeting capacity,melanin,found to have melanin targeting capacity both in vitro and in vivo
same,Solution inspection,[4],Clear solution
same,biodistribution (distribution properties),B16F10 tumor,desirable distribution properties
same,chemical stability during the radioiodination,[1],stable
same,Identified impurity (%),[1]; Tl(TFA)3/TFA,0%
same,RCP (%),[1]; Tl(TFA)3/TFA,97.1%
same,HPLC measured conc. at 7 days,"[5]; RT, concentration in the supernatant",0.23 mg/mL
same,Solution inspection at 7 days,"[5]; 3 mg/mL, 3% acetic acid, 30% PEG400, 2% ethanol, 6% ascorbic acid, 3% sodium gentisate, RT",Precipitation**
same,aqueous solubility,[5],poor aqueous solubility; also recorded: Compound A>Compound D>>Compound C
"CCN(CC)CCNC(=O)c1cc(I)c(NC(=O)c2ccc(OC)cc2)cc1OC [Compound D, N-(2-diethylamino-ethyl)-5-iodo-2-methoxy-4-(4-methyoxybenzoylamino)benzamide]",melanin targeting capacity,melanin,found to have melanin targeting capacity both in vitro and in vivo
same,Solution inspection,[4],Clear solution
same,biodistribution (distribution properties),B16F10 tumor,desirable distribution properties
same,chemical stability during the radioiodination,[1],stable
same,Identified impurity (%),[1]; Tl(TFA)3/TFA,0%
same,RCP (%),[1]; Tl(TFA)3/TFA,~100%
same,HPLC measured conc. at 7 days,[5]; RT,2.89 mg/mL
same,aqueous solubility,[5],poor aqueous solubility; also recorded: Compound A>Compound D>>Compound C
CCN(CC)CCNC(=O)c1ccc([123I])cc1 [^123I-BZA],tumor wash-out (% ID/g),B16 melanoma; 1 h,6.8 % ID/g
same,tumor wash-out (% ID/g),B16 melanoma; 24 h,0.8 % ID/g
same,tumor wash-out (% ID/g),B16 melanoma; 72 h,0.3 % ID/g
